Measurements taken from patent publication US11981729B2, “Method” (Agency for Science, Technology and Research, priority 2020, dated 2024).

How the values were obtained:
NIH3T3vSrc cells [1] = experiment: ECM degradation assay, NIH3T3vSrc on rat tail ECM; format: cell-based, mouse; settings: for ECM degradation: 1 mM GSH supplemented, or GPx and H2O2, vs untreated cells
Procedure: (§1) Gelatin (#G1393, Sigma) was first coupled to 5-carboxy-X-rhodamine succinimidyl ester (#C-6125, ThermoFisher Scientific). Sterile coverslips were coated with gelatin for 20 min, then fixed with 0.5% glutaraldehyde (#15960, Electron Microscopy Sciences) for 40 min. After washing, a layer of 0.5 mg/ml type I collagen (#354236 rat tail, Corning) was coated onto these gelatin coverslips and incubated 4 h at 37° C. before cell seeding. Cells were incubated overnight before fixation and staining. At least 20 images were acquired for each condition, experiments were done in 3 biological replicates. The area of degradation was quantified using ImageJ and normalized to the number of nuclei in each image. To study the involvement of GSH in collagen disulfide bond reduction, cells were seeded on red gelatin and collagen I coated coverslips to proceed to ECM degradation assay. Cells were incubated 2 h to adhere and where then incubated with 1 mM L-gluthatione reduced (GSH #4251, Sigma Aldrich) overnight before fixation. For the opposite experiment, cells were seeded into red gelatin and collagen I coated coverslips, incubated 2 h to adhere and treated with 10 mg GPx1 (SRP-8010, Sigma Aldrich) and H2O2 every 30 min for 6 hours before fixation. ECM degradation quantification was performed as described above. siRNA oligonucleotides were purchased from Dharmacon. Endogenous Cnx was depleted by 2 rounds of siRNA transfection. Briefly, cells were first treated by reverse transfection with 25 nM of control siRNA ([NT]) or siRNA against [NT]) using Lipofectamine RNAiMAX (ThermoFisher Scientific). The day after, cells were treated again by forward transfection with nM siRNA diluted in Opti-MEM medium (Gibco) and incubated 5 more days before analyzing. Since GALA stimulates ECM degradation and Cnx is present in the responsible subcellular structures, we next asked whether surface Cnx is involved in this activity. […] We quantified ECM degradative activity by measuring the loss of fluorescent gelatin using automated image analysis (FIG. 8C). […]

NIH3T3vSrc cells [2] = experiment: Invadosome rosette formation after Cnx depletion; format: cell-based, mouse; settings: siCnx vs siNT5
Procedure: siRNA oligonucleotides were purchased from Dharmacon. Endogenous Cnx was depleted by 2 rounds of siRNA transfection. Briefly, cells were first treated by reverse transfection with 25 nM of control siRNA (5′-UGGUUUACAUGUCGACUAA-3′) or siRNA against Cnx (5′-[…]-3′) using Lipofectamine RNAiMAX (ThermoFisher Scientific). The day after, cells were treated again by forward transfection with nM siRNA diluted in Opti-MEM medium (Gibco) and incubated 5 more days before analyzing.
(§2) To better understand this Cnx requirement, we tested whether Cnx depletion affected invadosomes formation, which we measured in NIH3T3vSrc because of the abundance of invadosomes and ease of detection in these cells (FIG. 2E). Given the lack of effect, we hypothesized an effect on Matrix Metalloproteinases and measured MMP2, 9 and 14 abundance by western blot (FIG. 8F). We also measured MMPs activity in a cell lysate and MMP14 localization in invadosomes rosettes after Cnx depletion (FIG. 8G, FIG. 8H).

MMP2, 9 and 14 = experiment: MMP protein level by western blot after Cnx depletion; format: cell-based; settings: NIH3T3vSrc after Cnx depletion
Procedure: Cells were washed twice with ice-cold PBS, scraped in ice-cold RIPA lysis buffer (50 mM Tris, 200 mM NaCl, 0.5% NP-40, Complete and PhoStop inhibitor [Roche Applied Science]) and lysed for 30 min at 4° C. Lysates were then clarified by centrifugation at 13000 g for 10 min at 4° C. Lysate concentrations were determined using Bradford reagent (Bio-Rad). Lysates were boiled at 95° C. for 5 min and separated by SDS-PAGE electrophoresis using 4-12% Bis-Tris NuPage gels (Invitrogen) at 180V for 70 min. Samples were then transferred on nitrocellulose membranes using iBlot transfer system (Invitrogen) and blocked using 3% BSA dissolved in TBST (50 mM Tris, 150 mM NaCl and 0.1% Tween-20) for 1 h at room temperature. Membranes were then incubated with primary antibodies (1/1000 diluted in 3% BSA-TBST) overnight at 4° C. […]
as §2

MMPs = experiment: FRET-based MMP activity assay on cell lysates; format: biochemical; settings: MDA ER-G2 after Cnx depletion
Procedure: In order to quantify total MMP activity, we used a FRET-based MMP activity assay kit (ab112147), on cell lysates, according to the manufacturer's protocol. Fluorescence was read at 540 nm using a microplate reader (Tecan) every 5 min for 2 h.
as §2

MMP14 = MMP14 localization in invadosome rosettes (immunofluorescence); format: cell-based; settings: NIH3T3vSrc after Cnx depletion
Procedure: Cells were seeded on coverslips, at 70 000 cells per well in a 24-well plate (ThermoFisher Scientific) and incubated overnight. Cells were fixed with 4% paraformaldehyde (PFA) in Phosphate Buffered Saline (PBS, Gibco) for 10 min, rinsed 3 times with PBS and then permeabilized with 0.2% Triton X-100 for 10 min. Cells were incubated with primary antibodies (1/100 diluted in 2% FBS-PBS) for 1 h 30 at room temperature, rinsed 3 times with PBS and incubated with secondary antibodies (1/200 diluted in 2% FBS-PBS) for 40 min before being rinsed and mounted on microscope slides.
as §2

NIH3T3vSrc cells [3] = experiment: Cell-mediated ECM disulfide bond reduction (NEM / OX133 staining); format: cell-based, mouse; settings: NIH3T3vSrc on rat tail ECM, GM6001 and NEM, 16 hours; Cnx depleted vs control cells
Excerpt: In the ER, the Cnx-ERp57 complex mediates the formation and isomerization of disulfide bonds in neo-synthesized proteins^40. To explain the surprising requirement of the same complex for matrix degradation, we hypothesized it could mediate the reduction of disulfide bonds in extracellular ECM fibers. To reveal disulfide bonds in ECM preparations, we used the reducing agent tris(2-carboxyethyl)phosphine (TCEP), followed by reaction with N-ethylmaleimide (NEM). […] To test whether disulfide bonds are present in liver ECM, we prepared decellularized mouse liver tissue. The decellularized matrix presented as a meshwork with a diamond-shaped pattern, the fibers staining for Collagen I, III, IV, and fibronectin (FIGS. 4B, FIG. 9A, FIG. 9B). […] We also tested the commercially-sourced liver porcine ECM and the rat tail connective tissue and obtained in both cases an abundant staining with OX133 after TECP/NEM treatment (FIG. 9C). This staining was entirely dependent on TCEP and NEM. In all cases, most of the OX133 signal colocalized with collagen fibers.
To test if cells are able to reduce these disulfide bonds, the actively degrading NIH3T3vSrc cells were sparsely seeded on rat tail ECM. The cells were treated with the MMP inhibitor GM6001 to prevent collagen degradation. NEM was then added to reveal reduced cysteines and after 16 hours, coverslips were fixed and labeled. […]

MDA ER-G2 cells = experiment: ECM degradation assay, MDA ER-G2 on rat tail ECM; format: cell-based, human; settings: for ECM degradation: MDA ER-G2, 1 mM GSH supplemented, or GPx and H2O2, vs untreated cells; for ECM degradation after ECM pre-treatment: ECM pre-treated before cell seeding
Procedure: as §1, with “image. To chemically reduce collagen disulfide bonds before cell seeding and ECM degradation assay, a 0.5 mg/ml type I collagen matrix was coated onto red gelatin coverslips and incubated 4 h at 37° C. for polymerization. Collagen was incubated with 2.5 mM TCEP (#64, 654-7, Sigma Aldrich) for 30 min at room temperature, rinsed 3 times with 1% BSA in PBS, and incubated with 5 mM N-ethylmaleimide (NEM #23030, ThermoFisher Scientific) for 30 min at room temperature. Coverslips were gently rinsed 3 more times with 1% BSA in PBS before cell seeding and ECM degradation assay.” for “image.”, “activity. To measure ECM degradation, we used a sandwich of fluorescently labeled gelatin overlaid with native ECM of different sources.” for “activity.”

## 5′-CAAGAGUGGUCCUAGGAGAUU-3′ [siCnx]
NIH3T3vSrc cells [1]; siRNA depletion vs control siRNA (siNT5), listed as siRNA targeting Cnx
  matrix degradation: similarly reduced ECM degradation
NIH3T3vSrc cells [2]
  rosette formation (number of rosettes per cell and percentage of cells making rosettes): non significant
MMP2, 9 and 14
  MMP2, 9 and 14 abundance by western blot: could not detect any difference
MMPs
  MMPs activity in a cell lysate: could not detect any difference
MMP14
  MMP14 localization in invadosomes rosettes: could not detect any difference
NIH3T3vSrc cells [3]
  OX133 staining of ECM (reduced disulfide bonds): significantly reduced

## N[C@@H](CCC(=O)N[C@@H](CS)C(=O)NCC(=O)O)C(=O)O [GSH, L-gluthatione reduced]
MDA ER-G2 cells
  ECM degradation: more efficient at ECM degradation
NIH3T3vSrc cells [1]
  ECM degradation: more efficient at ECM degradation

## Cl.O=C(O)CCP(CCC(=O)O)CCC(=O)O [TCEP, Tris(2-carboxyethyl)phosphine hydrochloride]
MDA ER-G2 cells; MDA ER-G2 control cells
  ECM degradation after ECM pre-treatment: stimulatory effect on ECM degradation
MDA ER-G2 cells; MDA ER-G2 depleted of Cnx or ERp57
  ECM degradation after ECM pre-treatment: completely reversed the inhibitory effect of Cnx depletion

B1: GPx: GSH peroxidase GPx1 (SRP-8010, Sigma Aldrich), given to cells together with H2O2 (protein, UniProt P00435 1-205, looked up)
Glutathione peroxidase 1: MCAAQRSAAALAAAAPRTVYAFSARPLAGGEPFNLSSLRGKVLLIENVASLUGTTVRDYTQMNDLQRRLGPRGLVVLGFPCNQFGHQENAKNEEILNCLKYVRPGGGFEPNFMLFEKCEVNGEKAHPLFAFLREVLPTPSDDATALMTDPKFITWSPVCRNDVSWNFEKFLVGPDGVPVRRYSRRFLTIDIEPDIETLLSQGASA
MDA ER-G2 cells
  ECM degradation: less efficient ECM degradation
NIH3T3vSrc cells [1]
  ECM degradation: less efficient ECM degradation
